Assay results from ChEMBL document CHEMBL1140714, “In search of novel agents for therapy of tropical diseases and human immunodeficiency virus” (J Med Chem, 2008).
The source made the active and inactive calls. The rule behind the calls is not given here.

Tests used:
[1] = system: Trypanosoma brucei brucei; assay: Antitrypanosomal activity against Trypanosoma brucei brucei TC221; assay type: functional; details: read-out: ED50 (the source's name)
[2] = Cytotoxicity against mouse J774.1 cells after 48 hrs; assay type: cell-based; details: read-out: ED50
[3] = system: Plasmodium falciparum; assay: Antiplasmodial activity against Plasmodium falciparum NF54 after 72 hrs; assay type: functional, organism-based; details: NF54, 72 h
[4] = system: Staphylococcus aureus; assay: Antibacterial activity against Staphylococcus aureus assessed as inhibition of biofilm formation; assay type: functional, organism-based
[5] = system: Leishmania major; assay: Antileishmanial activity against Leishmania major MHOM/IL/81/FE/BNI infected in BALB/c mouse; assay type: functional
[6] = system: Plasmodium falciparum; assay: Antiplasmodial activity against Plasmodium falciparum NF54 after 48 hrs; assay type: functional, organism-based; details: NF54, 48 h
[7] = system: Plasmodium falciparum; assay: Antiplasmodial activity against chloroquine-sensitive Plasmodium falciparum; assay type: functional, organism-based
[8] = system: Plasmodium falciparum; assay: Antiplasmodial activity against Plasmodium falciparum NF54 after 24 hrs; assay type: functional, organism-based; details: NF54, 24 h
[9] = system: Plasmodium falciparum; assay: Antiplasmodial activity against chloroquine-resistant Plasmodium falciparum; assay type: functional, organism-based
[10] = system: Plasmodium falciparum; assay: Antiplasmodial activity against chloroquine-sensitive Plasmodium falciparum NF54; assay type: functional, organism-based
[11] = system: Plasmodium falciparum; assay: Antiplasmodial activity against Plasmodium falciparum NF54 infected mice (Mus musculus) after 72 hrs; assay type: functional, organism-based; details: NF54, 72 h
[12] = system: Plasmodium falciparum; assay: Inhibition of parasitemia in chloroquine-sensitive Plasmodium falciparum NF54 infected C57BL/6 mice (Mus musculus) after 4 days; assay type: functional; design: scale not given: the % may be the effect or the level left
[13] = system: Human immunodeficiency virus 1; assay: Antiviral activity against HIV1 BaL replication in PM1 cells at 5 uM; assay type: functional, organism-based
[14] = system: Human immunodeficiency virus 1; assay: Antiviral activity against HIV1 NL4/3 replication in PM1 cells at 6 uM; assay type: functional, organism-based
[15] = system: Mus musculus; assay: Increase in survival of chloroquine-sensitive Plasmodium falciparum NF54 infected perorally dosed C57BL/6 mice (Mus musculus); assay type: functional, organism-based
[16] = system: Human immunodeficiency virus 1; assay: Antiviral activity against HIV1 NL4/3 replication in PM1 cells; assay type: functional
[17] = system: Human immunodeficiency virus 1; assay: Antiviral activity against HIV1 BaL replication in PM1 cells; assay type: functional
[18] = system: Plasmodium falciparum; assay: Antiplasmodial activity against Plasmodium falciparum NF54 after 36 hrs; assay type: functional, organism-based; details: NF54, 36 h
[19] = system: Plasmodium falciparum; assay: Inhibition of parasitemia in chloroquine-sensitive Plasmodium falciparum NF54 infected C57BL/6 mice (Mus musculus) after 2 days at 20 uM; assay type: functional; design: scale not given: the % may be the effect or the level left
[20] = system: Mus musculus; assay: Increase in survival of chloroquine-sensitive Plasmodium falciparum NF54 infected intravenously dosed C57BL/6 mice (Mus musculus); assay type: functional, organism-based
[21] = system: Plasmodium falciparum; assay: Inhibition of parasitemia in chloroquine-sensitive Plasmodium falciparum NF54 infected C57BL/6 mice (Mus musculus) after 1 day at 40 uM; assay type: functional; design: scale not given: the % may be the effect or the level left
[22] = Plasmodium falciparum, read-out: IC50

Compound	EC50 [1] [µM]	CC50 at 48 h [2] [µM]	Activity [4]	ED50 [5] [µM]	IC50 [7]	other results
COC(=O)C1=C(O)C[C@H](c2ccccn2)N(Cc2ccc(Cl)cc2)[C@@H]1c1ccccn1	0.32	32.8	inactive	87.93		IC50 [3]: 12 µM; IC50 [6]: 1.7 µM
C[C@@H]1CC2(C[C@H](C)N1)C(=O)N(CCO)C(=O)N2Cc1ccccc1 (stereo partly drawn)	> 100	> 100	inactive	>100	Not Active	
CC[C@@H]1CC2(C[C@H](CC)N1Cc1ccccc1)C(=O)N(Cc1ccc([N+](=O)[O-])cc1)C(=O)N2c1ccccc1 (stereo partly drawn)	25.4	> 100	inactive	>100	Not Active	
COC(=O)c1c(-c2ccccn2)n(Cc2ccc(C)cc2)c(-c2ccccn2)cc1=O			inactive			IC50 [8]: 9.1 µM; IC50 [6]: 40 µM
C[C@@H]1CC2(C[C@H](C)N1)C(=O)N(Cc1ccc([N+](=O)[O-])cc1)C(=O)N2Cc1ccccc1 (stereo partly drawn)	3.74	42.4	inactive	>100		IC50 [3]: 14.6 µM
COC(=O)C1C(=O)C(C(=O)OC)[C@H](c2ccccn2)N(Cc2ccccn2)[C@@H]1c1ccccn1 (stereo partly drawn)	4.62	29.9	inactive	>100	Not Active	
CCC[C@@H]1CC2(C[C@H](CCC)N1)C(=O)NC(=O)N2c1ccccc1 (stereo partly drawn)	> 100	36	inactive	>100	Not Active	
COC(=O)C1C(=O)C(C(=O)OC)[C@H](c2ccccn2)N(CCCC(=O)O)[C@@H]1c1ccccn1 (stereo partly drawn)	19.3	46	inactive	>100	Not Active	
COC(=O)C1=C(c2ccccn2)N(Cc2ccccc2)C(c2ccccn2)CC1=O (stereo not drawn)	> 100		inactive			IC50 [8]: 4.7 µM
NC(Cn1ccc(=O)c(O)c1)C(=O)O (stereo not drawn) [MIMOSINE]	> 100					IC50 [7, 22]: 32 µM; IC50 [9]: 39 µM
COC(=O)C1=C(c2ccccn2)N(Cc2ccc(Cl)cc2)C(c2ccccn2)CC1=O (stereo not drawn)			inactive			IC50 [8]: 18 µM
N[C@@H](Cn1ccc(=O)c(O)c1)C(=O)O [L-MIMOSINE]						IC50 [7, 22]: 32 µM; IC50 [9]: 39 µM
C[C@@H]1CC2(C[C@H](C)N1)C(=O)NC(=O)N2c1ccccc1 (stereo partly drawn)	> 100	> 100	inactive	>100	Not Active	
Cc1cc(C2CCCCC2)n(O)c(=O)c1 [CICLOPIROX OLAMINE]						IC50 [10]: 8.2 µM
C=CCN1[C@H](c2ccc([N+](=O)[O-])cc2)C(C(=O)OCC)C(=O)C(C(=O)OCC)[C@@H]1c1ccc([N+](=O)[O-])cc1 (stereo partly drawn)	3.06	> 100	inactive			IC50 [11]: 11 µM; Activity [12]: 0%; Activity [13]: Active; Activity [14]: Active; Activity [15]: Active
CC[C@@H]1CC2(C[C@H](CC)N1)C(=O)N(CCCc1ccccc1)C(=O)N2c1ccccc1 (stereo partly drawn)	13.4	> 100	inactive	>100	Not Active	
CC[C@@H]1CC2(C[C@H](CC)N1Cc1ccccc1)C(=O)NC(=O)N2c1ccccc1 (stereo partly drawn)	31	> 100	inactive	>100	Not Active	
Cl.Clc1cccc(Cl)c1CO/N=C/C1CCN(CCCc2ccccc2)CC1		28.4	inactive	30.72		IC50 [8]: 11.8 µM; IC50 [3]: 8.29 µM
Clc1cccc(Cl)c1CON=C1CCN(CCCc2ccccc2)CC1	> 100	> 100	inactive	>100		IC50 [7, 22]: 31 µM
COC(=O)C1C(=O)C(C(=O)OC)[C@H](c2ccc([N+](=O)[O-])cc2)N(Cc2ccccc2)[C@@H]1c1ccc([N+](=O)[O-])cc1 (stereo partly drawn)	3.01	18.4	inactive	>100		IC50 [11]: 11.9 µM; Inhibition [16]: 20%; Inhibition [17]: 20%
CCOC(=O)C1C(=O)C(C(=O)OCC)[C@H](c2ccc([N+](=O)[O-])cc2)N(Cc2ccccc2)[C@@H]1c1ccc([N+](=O)[O-])cc1 (stereo partly drawn)	2.72	> 100	inactive			IC50 [11]: 10.1 µM; Inhibition [16]: 20%; Inhibition [17]: 20%
CC[C@@H]1CC2(C[C@@H](CC)N1)C(=O)NC(=O)N2Cc1ccccc1 (stereo partly drawn)	> 100	> 100	inactive	>100	Not Active	
C=CCN1[C@@H](c2ccccn2)C(C(=O)OC)=C(O)C[C@H]1c1ccccn1		35	inactive	50		IC50 [8]: 1.4 µM
CC[C@@H]1CC2(C[C@H](CC)N1)C(=O)N(CCc1ccccc1)C(=O)N2c1ccccc1 (stereo partly drawn)	18.1	32.3	inactive	41.1	Not Active	
C=CCN1[C@H](c2ccc([N+](=O)[O-])cc2)C(C(=O)OC)C(=O)C(C(=O)OC)[C@@H]1c1ccc([N+](=O)[O-])cc1 (stereo partly drawn)	2.41	50.3	inactive	>100	Not Active	
COC(=O)c1c(-c2ccccn2)n(Cc2ccc(Cl)cc2)c(-c2ccccn2)cc1=O	> 100	> 100	inactive	>100		IC50 [18]: 9.4 µM
COC(=O)C1C(=O)C(C(=O)OC)[C@H](c2ccccn2)N(Cc2ccccc2)[C@@H]1c1ccccn1 (stereo partly drawn)		34	inactive	55.99		Activity [19]: 0%; IC50 [8]: 10.2 µM; IC50 [3]: 10.9 µM; Activity [20]: Active; Activity [21]: 0%
COC(=O)C1C(=O)C(C(=O)OC)[C@H](c2ccccn2)N(CCCO)[C@@H]1c1ccccn1 (stereo partly drawn)	18.3	32	inactive	>100	Not Active	
